In the oligonucleotide strings, read from the 5' end, every base follows the letter of its sugar. An asterisk marks phosphorothioate; unmarked linkages are phosphodiester. Other units and linkages are bracketed, terminal groups are in braces. A string of capitals states the bases alone. e = 2'-O-(2-methoxyethyl) (MOE); [5mC] = 5-methylcytosine; d = 2'-deoxy (DNA)
Experiments:
human Factor 7 mRNA [1] = experiment: Antisense inhibition of human Factor 7 mRNA in HepB3 cells, lipofectin, 50 nM, real-time RT-PCR; assay type: cell-based; settings: HepB3 cells; for % Inhibition (human Factor 7 mRNA): Example 1, 50 nM, ~24 h, relative to untreated control cells
Procedure, shortened: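 4,000 cells/well; ~24 h exposure; RNA isolated; probe set RTS 2927; normalised to RIBOGREEN® total RNA; % inhibition vs untreated.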

human Factor 7 mRNA [2] = experiment: Dose-dependent antisense inhibition of human Factor 7 in HepB3 cells, transfection with lipofectin; assay type: cell-based; settings: for percent inhibition of Factor 7 mRNA, relative to untreated control cells: lipofectin, HepB3 cells, 16 hours; for percent inhibition of Factor 7 mRNA, 3.125 nM / percent inhibition of Factor 7 mRNA, 6.25 nM / percent inhibition of Factor 7 mRNA, 12.5 nM / percent inhibition of Factor 7 mRNA, 25.0 nM / percent inhibition of Factor 7 mRNA, 50.0 nM / percent inhibition of Factor 7 mRNA, 100.0 nM: HepB3, lipofectin, ~16 h
Procedure, shortened: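 HepB3 cells (4,000/well) lipofectin-transfected with antisense oligonucleotide at 3.125 or 6.25 up to 100 nM for ~16 h. Factor 7 mRNA measured by real-time RT-PCR with primer probe set RTS 2927, adjusted to RIBOGREEN total RNA; expressed as percent inhibition versus untreated control cells.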

[3] = lipofectin, 50 nM antisense oligonucleotide, approximately 24 hours, primer probe set RTS 2927, relative to untreated control

Substance	% Inhibition (human Factor 7 mRNA) (human Factor 7 mRNA [1]; lipofectin) [%]	% Inhibition of human Factor 7 mRNA levels (human Factor 7 mRNA [1]; [3]) [%]	% Inhibition of human Factor 7 mRNA levels (human Factor 7 mRNA [1]; gapmers targeted to nucleobases 15188 to 15211 of SEQ ID NO: 1 (Table 13)) [%]	percent inhibition of Factor 7 mRNA, relative to untreated control cells (human Factor 7 mRNA [2]; 3.125 nM) [%]	percent inhibition of Factor 7 mRNA, relative to untreated control cells (human Factor 7 mRNA [2]; 12.5 nM) [%]	percent inhibition of Factor 7 mRNA, relative to untreated control cells (human Factor 7 mRNA [2]; 25 nM) [%]	percent inhibition of Factor 7 mRNA, relative to untreated control cells (human Factor 7 mRNA [2]; 50 nM) [%]	percent inhibition of Factor 7 mRNA, relative to untreated control cells (human Factor 7 mRNA [2]; 100 nM) [%]	percent inhibition of Factor 7 mRNA, 3.125 nM (human Factor 7 mRNA [2]; Example 2, 3.125 nM) [%]	percent inhibition of Factor 7 mRNA, 6.25 nM (human Factor 7 mRNA [2]; Example 2) [%]	percent inhibition of Factor 7 mRNA, 12.5 nM (human Factor 7 mRNA [2]; Example 2, 12.5 nM) [%]	percent inhibition of Factor 7 mRNA, 25.0 nM (human Factor 7 mRNA [2]; Example 2) [%]	percent inhibition of Factor 7 mRNA, 50.0 nM (human Factor 7 mRNA [2]; Example 2) [%]	percent inhibition of Factor 7 mRNA, 100.0 nM (human Factor 7 mRNA [2]; Example 2) [%]	percent inhibition of Factor 7 mRNA, 6.25 nM (human Factor 7 mRNA [2]; Example 5) [%]	percent inhibition of Factor 7 mRNA, 12.5 nM (human Factor 7 mRNA [2]; Example 5, 12.5 nM) [%]	percent inhibition of Factor 7 mRNA, 25.0 nM (human Factor 7 mRNA [2]; Example 5) [%]	percent inhibition of Factor 7 mRNA, 50.0 nM (human Factor 7 mRNA [2]; Example 5) [%]	percent inhibition of Factor 7 mRNA, 100.0 nM (human Factor 7 mRNA [2]; Example 5) [%]	percent inhibition of Factor 7 mRNA, relative to untreated control cells (human Factor 7 mRNA [2]) [%]
407935 (antisense eA*eT*eG*e[5mC]*eA*dT*dG*dG*dT*dG*dA*dT*dG*d[5mC]*dT*eT*e[5mC]*eT*eG*eA) [compound 407935]	94	72	79	19	58	70	85	87	57	76	78	89	90	89	38	53	70	82	86	39
407939 (antisense eT*eG*e[5mC]*eA*eG*d[5mC]*d[5mC]*d[5mC]*dG*dG*d[5mC]*dA*d[5mC]*d[5mC]*d[5mC]*eA*eG*e[5mC]*eG*eA) [compound 407939]	93	76		17	57	75	80	83	62	79	83	91	92	92	37	57	77	84	87	35

Reference: patent publication US20120214862A1, “MODULATION OF FACTOR 7 EXPRESSION” (ISIS Pharmaceuticals, Inc., priority 2009, published 2012)
